Assay results: the NIST ThermoML archive (doi:10.1021/je400783h)
± gives the expanded uncertainty stated by the source.

Conditions: for surface tension liquid-gas: Drop volume; for viscosity / speed of sound / mass density / vapor or sublimation pressure: Liquid; for viscosity: Capillary tube (Ostwald / Ubbelohde) method; for speed of sound: Pulse-echo method; for vapor or sublimation pressure: Ebulliometric method (Recirculating still)

Cc1ccc(C=O)o1 [5-methylfurfural]
Conditions | surface tension liquid-gas [mN/m] | vapor or sublimation pressure [kPa]
278.15 K | 43.02 ± 0.3 | –
280.65 K | 42.75 ± 0.29 | –
283.15 K | 42.37 ± 0.29 | –
285.65 K | 42.13 ± 0.29 | –
288.15 K | 41.8 ± 0.29 | –
290.65 K | 41.46 ± 0.29 | –
293.15 K | 41.2 ± 0.29 | –
295.65 K | 40.9 ± 0.29 | –
298.15 K | 40.61 ± 0.28 | –
300.65 K | 40.22 ± 0.28 | –
303.15 K | 39.95 ± 0.28 | 0.1 ± 0.1
305.65 K | 39.66 ± 0.28 | –
308.15 K | 39.32 ± 0.28 | 0.15 ± 0.1
310.65 K | 39.04 ± 0.28 | –
313.15 K | 38.75 ± 0.27 | –

Conditions | mass density [kg/m3] | speed of sound [m/s] | viscosity [mPa·s]
278.15 K, 101.33 kPa | – | 1521 ± 1.2 | 3.164 ± 0.067
280.65 K, 101.33 kPa | – | 1511.8 ± 1.2 | 2.974 ± 0.063
283.15 K, 100 kPa | 1118.02 ± 0.56 | – | –
283.15 K, 101.33 kPa | – | 1502.5 ± 1.2 | 2.764 ± 0.059
283.15 K, 2500 kPa | 1119.83 ± 0.61 | – | –
283.15 K, 5000 kPa | 1121.37 ± 0.66 | – | –
283.15 K, 7500 kPa | 1122.65 ± 0.71 | – | –
283.15 K, 10000 kPa | 1124.02 ± 0.76 | – | –
283.15 K, 20000 kPa | 1129.41 ± 0.98 | – | –
283.15 K, 30000 kPa | 1134.53 ± 1.2 | – | –
283.15 K, 40000 kPa | 1139.44 ± 1.5 | – | –
283.15 K, 50000 kPa | 1144.14 ± 1.7 | – | –
283.15 K, 60000 kPa | 1148.58 ± 2 | – | –
285.65 K, 101.33 kPa | – | 1493.2 ± 1.2 | 2.628 ± 0.056
288.15 K, 100 kPa | 1113.09 ± 0.55 | – | –
288.15 K, 101.33 kPa | – | 1484 ± 1.2 | 2.443 ± 0.052
288.15 K, 2500 kPa | 1114.82 ± 0.6 | – | –
288.15 K, 5000 kPa | 1116.39 ± 0.64 | – | –
288.15 K, 7500 kPa | 1117.87 ± 0.69 | – | –
288.15 K, 10000 kPa | 1119.23 ± 0.74 | – | –
288.15 K, 20000 kPa | 1124.75 ± 0.96 | – | –
288.15 K, 30000 kPa | 1129.99 ± 1.2 | – | –
288.15 K, 40000 kPa | 1134.99 ± 1.4 | – | –
288.15 K, 50000 kPa | 1139.79 ± 1.7 | – | –
288.15 K, 60000 kPa | 1144.31 ± 1.9 | – | –
290.65 K, 101.33 kPa | – | 1474.7 ± 1.2 | 2.297 ± 0.049
293.15 K, 100 kPa | 1108.15 ± 0.54 | – | –
293.15 K, 101.33 kPa | – | 1465.5 ± 1.2 | 2.175 ± 0.046
293.15 K, 2500 kPa | 1110.03 ± 0.58 | – | –
293.15 K, 5000 kPa | 1111.5 ± 0.63 | – | –
293.15 K, 7500 kPa | 1112.96 ± 0.68 | – | –
293.15 K, 10000 kPa | 1114.4 ± 0.73 | – | –
293.15 K, 20000 kPa | 1120.15 ± 0.93 | – | –
293.15 K, 30000 kPa | 1125.46 ± 1.1 | – | –
293.15 K, 40000 kPa | 1130.57 ± 1.4 | – | –
293.15 K, 50000 kPa | 1135.4 ± 1.6 | – | –
293.15 K, 60000 kPa | 1140.08 ± 1.9 | – | –
295.65 K, 101.33 kPa | – | 1456.3 ± 1.2 | 2.056 ± 0.044
298.15 K, 100 kPa | 1103.2 ± 0.53 | – | –
298.15 K, 101.33 kPa | – | 1447 ± 1.2 | 1.948 ± 0.041
298.15 K, 2500 kPa | 1104.82 ± 0.57 | – | –
298.15 K, 5000 kPa | 1106.62 ± 0.62 | – | –
298.15 K, 7500 kPa | 1108.34 ± 0.66 | – | –
298.15 K, 10000 kPa | 1109.63 ± 0.71 | – | –
298.15 K, 20000 kPa | 1115.43 ± 0.91 | – | –
298.15 K, 30000 kPa | 1120.97 ± 1.1 | – | –
298.15 K, 40000 kPa | 1126.15 ± 1.4 | – | –
298.15 K, 50000 kPa | 1131.12 ± 1.6 | – | –
298.15 K, 60000 kPa | 1135.84 ± 1.9 | – | –
300.65 K, 101.33 kPa | – | 1437.8 ± 1.2 | 1.853 ± 0.039
303.15 K, 100 kPa | 1098.25 ± 0.53 | – | –
303.15 K, 101.33 kPa | – | 1428.7 ± 1.2 | 1.757 ± 0.037
303.15 K, 2500 kPa | 1100.71 ± 1 | – | –
303.15 K, 5000 kPa | 1101.81 ± 0.6 | – | –
303.15 K, 7500 kPa | 1103.11 ± 0.65 | – | –
303.15 K, 10000 kPa | 1104.89 ± 0.69 | – | –
303.15 K, 20000 kPa | 1110.81 ± 0.88 | – | –
303.15 K, 30000 kPa | 1116.44 ± 1.1 | – | –
303.15 K, 40000 kPa | 1121.72 ± 1.3 | – | –
303.15 K, 50000 kPa | 1126.87 ± 1.6 | – | –
303.15 K, 60000 kPa | 1131.66 ± 1.8 | – | –
305.65 K, 101.33 kPa | – | 1419.6 ± 1.2 | 1.674 ± 0.036
308.15 K, 100 kPa | 1093.29 ± 0.51 | – | –
308.15 K, 101.33 kPa | – | 1410.5 ± 1.2 | 1.598 ± 0.034
308.15 K, 2500 kPa | 1095.01 ± 0.55 | – | –
308.15 K, 5000 kPa | 1096.9 ± 0.59 | – | –
308.15 K, 7500 kPa | 1098.15 ± 0.63 | – | –
308.15 K, 10000 kPa | 1100.06 ± 0.68 | – | –
308.15 K, 20000 kPa | 1106.17 ± 0.86 | – | –
308.15 K, 30000 kPa | 1111.86 ± 1.1 | – | –
308.15 K, 40000 kPa | 1117.24 ± 1.3 | – | –
308.15 K, 50000 kPa | 1122.38 ± 1.5 | – | –
308.15 K, 60000 kPa | 1127.34 ± 1.8 | – | –
310.65 K, 101.33 kPa | – | 1401.4 ± 1.2 | 1.527 ± 0.033
313.15 K, 100 kPa | 1088.32 ± 0.5 | – | –
313.15 K, 101.33 kPa | – | 1392.3 ± 1.2 | 1.461 ± 0.031
313.15 K, 2500 kPa | 1090.31 ± 0.54 | – | –
313.15 K, 5000 kPa | 1092.06 ± 0.58 | – | –

101.33 kPa, Vibrating tube method
Conditions | mass density [kg/m3]
278.15 K | 1122.94 ± 0.34
280.65 K | 1120.49 ± 0.34
283.15 K | 1118.02 ± 0.34
285.65 K | 1115.56 ± 0.34
288.15 K | 1113.09 ± 0.34
290.65 K | 1110.62 ± 0.33
293.15 K | 1108.15 ± 0.33
295.65 K | 1105.68 ± 0.33
298.15 K | 1103.2 ± 0.33
300.65 K | 1100.73 ± 0.33
303.15 K | 1098.25 ± 0.32
305.65 K | 1095.77 ± 0.32
308.15 K | 1093.29 ± 0.32
310.65 K | 1090.8 ± 0.32
313.15 K | 1088.32 ± 0.32
